According to patent US20070049518A1, “Novel method of treatment of inflammatory skin conditions” (priority 2005, published 2007):

Legend:
human MMP-8 = target: T1, human MMP-8 (Homo sapiens, UniProt P22894); assay: MMP enzyme inhibition assay, MMP-8; format: biochemical; settings: pH 7.5, 37° C., 1 hour
T1 construct: purchased Calbiochem

[1] = target: T2, recombinant human kallikrein 5 (Homo sapiens, UniProt Q9Y337); assay: Selectivity profile, kallikrein 5; format: biochemical; settings: read-out: inhibition at 0.1 mM, Kallikrein 5
T2 construct: purchased R&D Systems Inc
Experimental: (§1) Inhibitory activity was tested in reaction mixtures (0.1 ml) containing 2% (v/v) DMSO vehicle±compound plus additions as follows. V8 protease: 90 mM MOPS (sodium) buffer pH 7.0, […] calcium chloride, 0.045% Brij 35, 10 μM Mca-Leu-Glu-Val-Asp-Gly-Trp-Lys(Dnp)-amide (Bachem) and V8 (BioCentrum Ltd; 30 ng). Staphopain A and B: 90 mM MOPS (sodium) buffer pH 7.0, 1.8 mM cysteine-HCl (pH-adjusted with NaOH), 0.045% Brij 35, 0.1 mM Z-Phe-Arg-AMC hydrochloride (Bachem) and staphopain A or B (BioCentrum Ltd; 30 ng). Human kallikrein 5: 0.1M sodium phosphate buffer pH 8.0, 0.045% Brij 35, 0.1 mM Boc-Val-Pro-Arg-AMC (Sigma) and recombinant human kallikrein 5 (R&D Systems Inc; 6 ng). Human kallikrein 7: 72 mM Tris-HCl pH 8.0, 0.033% Brij 35, 1.2 mM S-2586 (Chromogenix Instrumentation Laboratory SpA) and recombinant human kallikrein 7 (R&D Systems Inc; 0.6 μg) that had been thermolysin-activated according to the manufacturer's instructions. Human angiotensin-converting enzyme (ACE): 45 mM MES (sodium) buffer pH 6.5, 0.045% Brij 35, 10 μM Mca-[…]Dnp)-OH(R&D Systems Inc) and recombinant human ACE (R&D Systems Inc; 1.3 ng). Human cathepsin D: 0.1M sodium acetate buffer pH 3.5, 0.2M sodium chloride, 0.045% Brij 35, 10 μM Mca-Pro-Leu-Gly-Leu-Dap(Dnp)-Ala-Arg-amide (Bachem) and recombinant human cathepsin D (R&D Systems Inc; 8 ng) activated according to the manufacturer's instructions. […]

[2] = target: T3, purified aureolysin type II (Staphylococcus aureus, UniProt P81177); assay: Aureolysin enzyme inhibition assay, type II; format: biochemical; settings: pH 6.8, 37° C., 1 hour; read-out: IC50 value Aureolysin type II
T3 sequence (P81177 1-509): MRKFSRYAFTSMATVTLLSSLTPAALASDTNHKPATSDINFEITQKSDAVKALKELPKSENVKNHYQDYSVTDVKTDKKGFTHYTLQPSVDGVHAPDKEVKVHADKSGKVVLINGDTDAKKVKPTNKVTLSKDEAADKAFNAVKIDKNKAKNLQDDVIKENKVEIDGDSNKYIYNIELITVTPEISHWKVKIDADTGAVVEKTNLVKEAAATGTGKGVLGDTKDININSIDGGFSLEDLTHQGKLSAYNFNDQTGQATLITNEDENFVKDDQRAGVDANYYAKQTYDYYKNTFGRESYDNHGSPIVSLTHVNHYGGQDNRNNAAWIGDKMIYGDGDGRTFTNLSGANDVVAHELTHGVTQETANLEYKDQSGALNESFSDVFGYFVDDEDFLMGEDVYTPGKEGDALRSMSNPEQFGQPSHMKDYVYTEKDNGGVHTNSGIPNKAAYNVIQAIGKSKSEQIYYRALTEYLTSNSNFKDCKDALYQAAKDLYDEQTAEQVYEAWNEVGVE

[3] = test system: Aureolysin in S. aureus 8325-4 culture supernatant; assay: Aureolysin activity in supernatant of S. aureus grown with compound; format: cell-based, Staphylococcus aureus
Experimental: Duplicate samples of brain heart infusion medium (5 ml; Becton Dickinson and Co.) containing 10% skimmed milk and 2% (v/v) DMSO vehicle±Compound 12 were inoculated with S. aureus 8325-4 (approximately 10^7 cells in tryptic soy broth) and incubated for 16 h at 37° C./220 rpm. Cultures were centrifuged to remove bacteria and the culture supernatants stored at −70° C. pending analysis of protease activity.
Enzyme activities were measured in mixtures containing 90 mM MOPS (sodium) buffer pH 7.0 (0.1 ml), 0.045% Brij 35, 2% (v/v) DMSO vehicle±Compound 12 and culture supernatant (4 μl). The concentration of compound used was the same as that which had been used to culture the assayed sample. Further additions to the reaction mixtures were as follows. Aureolysin assay: 4.5 mM calcium chloride, 9 μM E-64 (to inhibit cysteine protease activity) and 10 μM Mca-Pro-Leu-Gly-Leu-Dap(Dnp)-Ala-Arg-amide (Bachem); V8 protease assay: 10 μM Mca-Leu-Glu-Val-Asp-Gly-Trp-Lys(Dnp)-amide (Bachem); cysteine protease assay: 1.8 mM cysteine-HCl (pH-adjusted with NaOH), 9 mM EDTA and 0.1 mM Z-Phe-Arg-AMC hydrochloride (Bachem). The rate of product formation at 37° C. was monitored over 6 h taking readings at 15 min intervals using a POLARstar OPTIMA plate reader (BMG LABTECH Ltd) with 320 nm excitation/405 nm emission for aureolysin and V8 assays and 390 nm excitation/460 nm emission for the cysteine protease assay. Enzyme activities were determined from the linear rate of fluorescence increase and converted to percent inhibition by reference to vehicle control samples.

S. aureus 8325-4 = assay: S. aureus growth by turbidometry in micro-titre plates; format: cell-based, Staphylococcus aureus; settings: for inhibition at 100 µM: Staphylococcus aureus, 83254, growth inhibition, overnight, absorbance 620 nm, read-out: Inhibition at 0.1 mM
Experimental: Tryptic soy broth (0.18 ml) containing S. aureus 8325-4 (approximately 10^5 cells) was mixed with 20 μl 20% (v/v) DMSO vehicle±compound in the wells of a flat-bottomed clear polystyrene 96-well micro-titre plate. The plate was incubated overnight at 37° C./220 rpm and the absorbance measured at 620 nm the following day.

staphopain A = target: T4, staphopain A (Staphylococcus aureus, UniProt P81297); assay: Selectivity profile, staphopain A; format: biochemical; settings: read-out: inhibition at 0.1 mM, Staphopain A
T4 construct: purchased BioCentrum Ltd
Experimental: as §1

Solubility in water = format: physicochemical; settings: particularly when the solid is in amorphous form

T4 sequence (P81297 215-388): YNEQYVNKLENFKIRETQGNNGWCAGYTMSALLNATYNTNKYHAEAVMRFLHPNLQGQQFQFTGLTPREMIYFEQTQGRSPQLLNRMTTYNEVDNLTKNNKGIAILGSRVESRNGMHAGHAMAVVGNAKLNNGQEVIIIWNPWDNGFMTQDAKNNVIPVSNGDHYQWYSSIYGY
T1 sequence (P22894 101-467): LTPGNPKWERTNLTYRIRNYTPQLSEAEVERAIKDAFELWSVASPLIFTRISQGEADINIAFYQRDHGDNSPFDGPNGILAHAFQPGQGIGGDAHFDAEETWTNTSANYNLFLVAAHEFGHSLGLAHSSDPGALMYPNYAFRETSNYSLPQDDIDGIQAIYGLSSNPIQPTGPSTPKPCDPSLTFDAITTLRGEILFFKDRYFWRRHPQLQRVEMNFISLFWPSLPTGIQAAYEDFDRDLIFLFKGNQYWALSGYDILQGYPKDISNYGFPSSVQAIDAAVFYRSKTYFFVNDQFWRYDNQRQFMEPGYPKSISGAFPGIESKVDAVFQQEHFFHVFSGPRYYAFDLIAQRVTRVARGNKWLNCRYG
T2 sequence (Q9Y337 23-293): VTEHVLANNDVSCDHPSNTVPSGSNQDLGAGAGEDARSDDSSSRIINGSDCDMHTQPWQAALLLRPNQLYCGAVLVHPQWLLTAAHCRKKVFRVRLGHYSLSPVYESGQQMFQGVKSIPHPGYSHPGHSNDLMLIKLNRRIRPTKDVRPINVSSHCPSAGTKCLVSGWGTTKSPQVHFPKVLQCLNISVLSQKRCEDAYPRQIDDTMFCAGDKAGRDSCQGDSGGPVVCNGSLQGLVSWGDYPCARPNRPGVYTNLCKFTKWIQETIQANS

Row | Structure (SMILES) | IC50 (human MMP-8) | inhibition at 100 µM [1] | IC50 [2] | Inhibition (%) Aureolysin ([3]; Compound 12 40 μM in culture and assay) | Inhibition (%) Aureolysin ([3]; Compound 12 79 μM in culture and assay) | Inhibition (%) Aureolysin ([3]; Compound 12 159 μM in culture and assay) | Inhibition (%) Aureolysin ([3]; Compound 12 317 μM in culture and assay) | inhibition at 100 µM (S. aureus 8325-4) | inhibition at 100 µM (staphopain A) | solubility in water (in words) (Solubility in water) | anti-bacterial activity (in words) (S. aureus 8325-4; data in Tables 10 and 11)
1 | CNC(=O)[C@@H](NC(=O)[C@H](CC(=O)NO)CC(C)C)C(C)(C)C [Compound 12, (S)—N1-((S)-3,3-dimethyl-1-(methylamino)-1-oxobutan-2-yl)-N4-hydroxy-2-isobutylsuccinamide] | 1400 nM | 0% | 2200 nM | 89% | 94% | 98% | 99% | 0% | 0% | particularly soluble in water | –
2 | CNC(=O)[C@@H](NC(=O)[C@@H](CC(=O)NO)CC(C)C)C(C)(C)C [Compound 11, (R)—N1-((S)-3,3-dimethyl-1-(methylamino)-1-oxobutan-2-yl)-N4-hydroxy-2-isobutylsuccinamide] | 1.4 nM | – | 2400 nM | – | – | – | – | 2% | 5% | – | not anti-bacterial
